# Patent US4461900A, “4,5-Dihydrothiadiazole 1,1-dioxide derivatives” (American Home Products Corporation, priority 1983, dated 1984)
# Tests used:
# [1] = test system: H2 receptor; conditions: cited from earlier work
# [2] = test system: histamine induced gastric acid secretion; conditions: dog; cited from earlier work
# [3] = target: T1, H2 -receptor (Cavia porcellus, UniProt P47747); test: In vitro H2 antagonism: histamine-induced heart rate increase in isolated guinea-pig right atria; type: cell-based; conditions: at 10^-4, 10^-5 M
# T1 construct: The right atria of Males Charles River guinea-pigs; from tissue; host or cells: isolated right atria of male Charles River guinea-pigs
# T1 sequence (P47747 whole entry): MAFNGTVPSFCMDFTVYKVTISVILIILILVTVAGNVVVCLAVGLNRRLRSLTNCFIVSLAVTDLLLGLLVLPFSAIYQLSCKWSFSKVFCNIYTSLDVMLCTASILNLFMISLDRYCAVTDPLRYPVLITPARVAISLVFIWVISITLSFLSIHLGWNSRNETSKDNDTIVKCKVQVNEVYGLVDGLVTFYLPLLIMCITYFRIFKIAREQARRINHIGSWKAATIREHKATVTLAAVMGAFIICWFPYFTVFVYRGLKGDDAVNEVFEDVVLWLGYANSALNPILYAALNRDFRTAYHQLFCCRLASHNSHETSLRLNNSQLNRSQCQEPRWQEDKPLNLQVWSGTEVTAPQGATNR
# Description: The right atria of Males Charles River guinea-pigs (250-325 gm), trimmed of extraneous tissues is suspended in a bath at a 1.0 g tension load between an anchor and a Grass Model FT03 force displacement transducer which is coupled to a Beckman Dynograph recorder. The Krebs-Henseleit bath is oxygenated (95% O2 -5% CO2) and maintained at 32° C. After establishing a regular pattern of spontaneous activity over one hour, cumulative doses of histamine are introduced into the bath and the maximal heart rate increase recorded after each addition to establish a response control.
# Then the tissue is washed, returned to rest rates and the compound being treated is introduced into the bath. Thirty minutes later the histamine dose-response study is repeated. The response to histamine in the presence of an antagonist differs from that obtained in the absence of antagonist and the log of the ratio of differences is platted against the log concentration of antagonist for each of several concentrations from which the apparent dissociation constant (pA2) is calculated.
smiles,measurement,setting,value
C#CCNC(=NC#N)NCCSCc1nc[nH]c1C [Etintidine],Potency as H2 -receptor antagonist relative to cimetidine,[1],more potent than cimetidine
CNC(=C[N+](=O)[O-])NCCSCc1ccc(CN(C)C)o1 [Ranitidine],Potency relative to cimetidine in blocking histamine induced gastric acid secretion,[2],about 5 times
CNC(=NC#N)NCCSCc1csc(N=C(N)N)n1 [Tiotidine],Potency relative to cimetidine in H2 receptor antagonism,[1]; both in vitro and in vivo studies,at least ten
"CN(C)Cc1ccc(CSCCNC2=NS(=O)(=O)CN2)o1 [Example 1, N-[2-[[[5-[(DIMETHYLAMINO)METHYL]-2-FURANYL]METHYL]THIO]ETHYL]-4,5-DIHYDRO- 1,2,4-THIADIAZOL-3-AMINE 1,1-DIOXIDE]",H2 antagonism (activity at stated concentrations),[3],active
